# Laboratory results as given in paper PMC12592400, “A unique inhibitor conformation selectively targets the DNA polymerase PolC of Gram-positive priority pathogens” (Nature Communications, 2025).
# Several values for one entry are separate records, joined by “and”; a condition that tells them apart may be missing. Equal values may be shown once.
# Columns and labels:
# Assay in all cases: Real-time DNA primer extension assay
# [1] = test system: E. faecium PolC^F1276L (exonuclease-inactivated); type: biochemical, Enterococcus faecium; conditions: versus wild-type PolC
# Source text: (§1) The genes for PolC (locus_tag: MIBBHLJO_01574) and DnaE (locus_tag: MIBBHLJO_00911) from E. faecium ATCC 700221 were codon-optimized for expression in E. coli and synthesized in vector pET28b by Twist Bioscience (San Francisco, CA). Expression constructs for variant PolC proteins were created with QuikChange Site-Directed Mutagenesis (Agilent) with oligonucleotides listed in Supplementary Table 3. F1276L, F1276S, and A1281T were introduced to assess the effect of these mutations on inhibition by ACX compounds. Mutations D972A and D974A were introduced to inactivate the polymerase activity and mutations D431A and E433A were introduced to inactivate the exonuclease activity (Fig. 1d, Supplementary Fig. 1).
# (§2) Polymerase activity was monitored in real-time[31],[32] with a 42-nt long 5’ carboxyfluorescein-labelled DNA oligonucleotide template strand (DNASP8_42) annealed to a 30-nt primer oligonucleotide (oMU014). Polymerase activity in this assay is monitored by measuring fluorescence quenching of the labelled DNA template as a result of primer extension by PolC (for details see Supplementary Fig. 1b, c). Both primers were HPLC purified. Primer extension assays were performed in Reaction Buffer (see Gel-based polymerase and exonuclease assays) supplemented with 0.5 mg/mL BSA, 0.05% Tween20 and 25 uM of each dNTP (SRB) in 384-well Black Round Bottom plates (Corning 4514). The polymerase was diluted in the SRB and incubated for at least 5 min in the presence of inhibitor or solvent, with a final solvent concentration of 1%. The reaction was initiated by the addition of an equal volume of DNA substrate in SRB as described below. Fluorescence emission data was collected with a BMG Labtech PHERAstar FSX reader for 30 min at room temperature.
# (§3) Compounds were dispensed with an Echo acoustic liquid handler (Beckman Coulter). All compounds were dissolved to 1 mM and 10 mM stocks in 100% DMSO and transferred to Echo LDV or PP source plates (Labcyte, Inc., CA), then dispensed to 384-well plates with a Labcyte Echo550 or Echo650 acoustic dispenser at volumes of 2.5 to 100 nL per well. […] A Mantis microfluidic liquid dispenser (Formulatrix) was used to dispense 5 µL polymerase and 5 µL substrate DNA (individually diluted in SRB) per well. […] The final concentration of DNA was 70 nM.
# (§4) Data were analysed and standard error of the means (SEM) determined in Prism 8.4.2 and 10.2.3 (GraphPad). Raw time-course polymerase activity was plotted against time, with SEM of triplicates determined. The rate of activity (represented by signal quenching) was determined during the first 8 min (linear stage) by calculating the slope of fluorescence intensity change (converted to a positive value) over time (in seconds). The slopes were then normalized to percentage activity (%); per ‘replicate range’, 100% activity was defined as polymerase activity in the absence of inhibitor (polymerase control), and 0% activity was determined in the absence of polymerase (DNA signal; negative control). The SEM was determined between ‘replicate ranges’. The IC50 was determined using the dose-response (inhibition) nonlinear regression ‘[Inhibitor] vs. response (three parameters)’ without constraints.
# [2] = molecular target: T1, E. faecium PolC^F1276L (exonuclease-inactivated) (Enterococcus faecium, UniProt A0A9X4B319, D429A/E431A/F1274L); type: biochemical; conditions: for rate of activity (slope of fluorescence intensity change over time): Fig. 4b source data, F1276L
# T1 sequence (A0A9X4B319 1-1450 D429A/E431A/F1274L): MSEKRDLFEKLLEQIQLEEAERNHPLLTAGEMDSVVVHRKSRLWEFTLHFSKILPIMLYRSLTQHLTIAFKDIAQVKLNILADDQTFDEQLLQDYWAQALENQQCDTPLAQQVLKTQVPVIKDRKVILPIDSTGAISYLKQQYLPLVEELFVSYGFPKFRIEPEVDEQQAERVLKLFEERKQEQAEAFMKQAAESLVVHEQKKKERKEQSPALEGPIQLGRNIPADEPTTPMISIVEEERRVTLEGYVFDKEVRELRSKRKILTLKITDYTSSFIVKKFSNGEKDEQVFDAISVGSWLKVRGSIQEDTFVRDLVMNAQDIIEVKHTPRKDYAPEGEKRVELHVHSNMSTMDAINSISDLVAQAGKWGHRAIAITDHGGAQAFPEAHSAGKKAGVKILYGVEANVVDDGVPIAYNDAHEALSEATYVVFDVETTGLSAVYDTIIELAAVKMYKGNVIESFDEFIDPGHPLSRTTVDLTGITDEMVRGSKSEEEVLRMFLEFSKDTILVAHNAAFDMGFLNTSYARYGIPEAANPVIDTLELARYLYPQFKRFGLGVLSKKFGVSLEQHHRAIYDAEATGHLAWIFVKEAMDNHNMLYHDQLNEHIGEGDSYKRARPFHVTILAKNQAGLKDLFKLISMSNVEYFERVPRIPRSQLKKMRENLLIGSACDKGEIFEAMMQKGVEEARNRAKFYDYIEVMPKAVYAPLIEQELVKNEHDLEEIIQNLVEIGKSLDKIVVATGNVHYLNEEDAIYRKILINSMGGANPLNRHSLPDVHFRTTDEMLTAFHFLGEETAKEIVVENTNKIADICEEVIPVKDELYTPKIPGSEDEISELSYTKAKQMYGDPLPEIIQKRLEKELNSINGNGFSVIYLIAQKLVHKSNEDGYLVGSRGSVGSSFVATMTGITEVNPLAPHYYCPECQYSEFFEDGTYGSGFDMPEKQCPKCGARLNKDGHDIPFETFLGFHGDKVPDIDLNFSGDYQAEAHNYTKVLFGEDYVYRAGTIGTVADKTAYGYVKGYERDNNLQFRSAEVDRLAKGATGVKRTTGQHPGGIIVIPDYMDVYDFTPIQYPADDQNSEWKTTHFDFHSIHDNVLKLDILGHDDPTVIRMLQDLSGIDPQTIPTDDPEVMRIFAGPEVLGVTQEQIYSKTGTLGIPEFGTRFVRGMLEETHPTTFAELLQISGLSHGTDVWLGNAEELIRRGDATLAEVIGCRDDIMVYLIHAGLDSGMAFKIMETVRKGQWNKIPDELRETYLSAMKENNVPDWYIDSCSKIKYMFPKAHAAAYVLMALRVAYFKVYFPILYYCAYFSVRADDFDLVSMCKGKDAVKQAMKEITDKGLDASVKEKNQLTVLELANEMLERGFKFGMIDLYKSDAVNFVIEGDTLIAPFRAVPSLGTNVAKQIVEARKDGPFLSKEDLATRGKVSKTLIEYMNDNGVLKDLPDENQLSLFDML
# Source text: as §1, §2, §3, §4
# [3] = test system: E. faecium PolC^F1276S (exonuclease-inactivated); type: biochemical, Enterococcus faecium; conditions: versus wild-type PolC
# Source text: as §1, §2, §3, §4
structure (smiles),measurement,setting,value
"O=c1[nH]c(NCc2ccc(Cl)c(Cl)c2)nc2ncn(CCN3CCOCC3)c12 [IBZ, N^2-(3,4-dichlorobenzyl)-7-(2-[1-morpholinyl]ethyl)guanine]",increase of IC50 by the F1276L mutation,[1],> 48 fold
same,IC50,[2],> 225 µM
same,rate of activity (slope of fluorescence intensity change over time),[2]; inhibitor 4 uM,28.2 and 29.1 and 29.0
same,rate of activity (slope of fluorescence intensity change over time),[2]; inhibitor 5.75 uM,29.9 and 30.4
same,rate of activity (slope of fluorescence intensity change over time),[2]; inhibitor 8.8 uM,26.3 and 30.0
same,rate of activity (slope of fluorescence intensity change over time),[2]; inhibitor 20 uM,26.8 and 26.3
same,rate of activity (slope of fluorescence intensity change over time),[2]; inhibitor 30 uM,27.4 and 27.1
same,rate of activity (slope of fluorescence intensity change over time),[2]; inhibitor 45 uM,25.1 and 26.5 and 24.8
same,rate of activity (slope of fluorescence intensity change over time),[2]; inhibitor 67.5 uM,23.8 and 26.5 and 24.8
same,rate of activity (slope of fluorescence intensity change over time),[2]; inhibitor 100 uM,24.9 and 23.0 and 25.8
same,rate of activity (slope of fluorescence intensity change over time),[2]; inhibitor 150 uM,23.2
same,increase in IC50 by the F1276S mutation,[3],> 48 fold
"O=c1[nH]c(NCc2ccc3c(c2)OC(F)(F)O3)nc2c(F)nn(CCO)c12 [ACX-801, 5-(((2,2-difluorobenzo[d][1,3]dioxol-5-yl)methyl)amino)-3-fluoro-1-(2-hydroxyethyl)-1,6-dihydro-7H-pyrazolo[4,3-d]pyrimidin-7-one]",increase of IC50 by the F1276L mutation,[1],> 19 fold
same,IC50,[2],> 225 µM
same,rate of activity (slope of fluorescence intensity change over time),[2]; inhibitor 4 uM,29.6 and 27.7 and 30.1
same,rate of activity (slope of fluorescence intensity change over time),[2]; inhibitor 5.75 uM,28.5 and 26.4 and 28.8
same,rate of activity (slope of fluorescence intensity change over time),[2]; inhibitor 8.8 uM,26.7 and 28.0 and 26.2
same,rate of activity (slope of fluorescence intensity change over time),[2]; inhibitor 20 uM,25.3 and 26.0 and 26.9
same,rate of activity (slope of fluorescence intensity change over time),[2]; inhibitor 30 uM,26.3 and 26.7 and 25.0
same,rate of activity (slope of fluorescence intensity change over time),[2]; inhibitor 45 uM,25.4
same,increase in IC50 by the F1276S mutation,[3],> 8 fold
